Results published in the OligoGym collection.
These antisense oligonucleotides have a phosphorothioate backbone; sugars and methylation of C are not fully specified.

target: PTEN; conditions: ASO
Also: test concentration or dose not given here.

Row | Sequence | remaining target (mRNA or protein) (fraction of control)
1 | GGTTGGCTTTGTCTTTAT | 0.23
2 | GTGTCAAAACCCTGTGGA | 0.28
3 | TAAATAGCTGGAGATGGT | 0.45
4 | TAGCAAAACCTTTCGGAA | 0.49
5 | TATTTTCATGGTGTTTTA | 0.24
6 | TCAATATTGTTCCTGTAT | ≥ 1
7 | TCTCCTCAGCAGCCAGAG | 0.66
8 | TCTGGATCAGAGTCAGTG | 0.56
9 | TCTTCTGCAGGATGGAAA | ≥ 1
10 | TGAAGAATGTATTTACCC | 0.56
11 | TGCTAACGATCTCTTTGA | 0.57
12 | TGCTAGCCTCTGGATTTG | 0.26
13 | TGGCTGCAGCTTCCGAGA | 0.27
14 | TGTCTCTGGTCCTTACTT | 0.66
15 | TGTGAAACAACAGTGCCA | 0.25
16 | TGTTCCTATAACTGGTAA | 0.42
17 | TGTTTCAAGCCCATTCTT | 0.35
18 | TTAAATTTGGCGGTGTCA | ≥ 1

target: BIRC2; conditions: ASO

Row | Sequence | remaining target (mRNA or protein) (fraction of control)
19 | AAAAGCTAAGTTCACACA | ≥ 1
20 | AAATTACACTCCATAGAA | ≥ 1
21 | AAGCACTTTAACATGACA | 0.85
22 | AAGTCAATACCCACAAGC | ≥ 1
23 | AATCAACTCTACTAGCCT | 0.53
24 | ACCTGGGAAAAGTCTTTG | ≥ 1
25 | ACTTTCTTCCTAACTTTG | ≥ 1
26 | AGGTGGATGCACTTCTGA | ≥ 1
27 | AGTGAAAAGCACCAAAGA | ≥ 1
28 | ATAACAGACCAATTACTG | ≥ 1
29 | ATAATTGGTGGGTCAGCA | ≥ 1
30 | ATATAGTTCACCAAACAT | ≥ 1

target: FADD; conditions: ASO

Row | Sequence | remaining target (mRNA or protein) (fraction of control)
31 | AAGATACGAGATCCCGCT | 0.64
32 | AAGGAAGATTTAGAGAGT | 0.72
33 | ACACCGAGTGCAGCAGCA | 0.82
34 | ACCAGGAACGGGTCCATG | 0.92
35 | AGTTGTAAAGCTGTGTTT | 0.57
36 | ATGGGCTCTGGTGAAGGA | ≥ 1
37 | CACACAGGTCTTCTTCCC | ≥ 1
38 | CACCACAGCACCCCGCCT | 0.95
39 | CATGGAGAAGAGGTCTAG | 0.71
40 | CCAGCGGCCCAAGGATTC | ≥ 1
41 | CCATCAGGACGCTTCGGA | 0.93
42 | CCCCACATTATCACATAT | 0.9
43 | CCCCGCCTCGAAGTCGTC | 0.82
44 | CCGGTGGCCTCCAAGGAA | ≥ 1
45 | CCTGCTGGGTCTTCACAG | ≥ 1
46 | CGCAGCTTGAGTTCAGAA | 0.65
47 | CGCGCCCGAGGCATAGGA | 0.75
48 | CTCCAGCTTGCGCTTGAC | 0.78
49 | CTCCAGGTCGTTCTGCTC | 0.65
50 | CTCCCGCACACGCTCTGT | ≥ 1

Row | Sequence | remaining target (mRNA or protein) (fraction of control)
51 | CTCCGGTGCCTGATTCAC | 0.94
52 | CTGTGTTCTTCCAGATTC | ≥ 1
53 | CTTCGCTCCGATTCCTGG | ≥ 1
54 | GAACCAAAGTCCAGGCTG | ≥ 1
55 | GACAGGCTGGACGACACC | 0.62
56 | GATGCTGTCGATCTTGGT | 0.91
57 | GCCAGCCTTCTCCAATCT | 0.62
58 | GCCCCTACTTAGCAGTCT | 0.65
59 | GCTCGCTGCTCGACAGGC | 0.74
60 | GCTGGGCTACCTTCCTGG | ≥ 1
61 | GGACCACGGCCAACCAGG | 0.58
62 | GGCCCCACTCCTGTTCTG | 0.52
63 | GGTTCCAACTTTCCAACT | 0.97
64 | GTCTGAGACTTTGAGCTG | ≥ 1
65 | GTTGCGTTCTCCTTCTCT | 0.76
66 | TACCAGGTCAGCCACCAG | 0.91
67 | TCATAGTGAGGAAGAAAT | ≥ 1
68 | TCATCAGCACCTCACAGA | 0.74
69 | TGGAGTAACAGTGTGACT | 0.64
70 | TTTGATACAAAACAGTAA | 0.42
